Experimental data from ChEMBL document CHEMBL4251601 (Eur J Med Chem, 2018).
pIC50: −log10 of the molar value.

Tests used:
U-87 MG [1] = assay: Antitumor activity against luciferase-fused human U87MG cells orthotopically xenografted in nude mouse assessed as tumor growth inhibition at 6.25 mg/kg, po qd for 4 weeks by bioluminescence imaging relative to control; assay type: functional, U-87MG ATCC; settings: 672 h, read-out: TGI
CDK6/cyclin D3 = CDK6/cyclin D3 (Homo sapiens, UniProt Q00534); assay: Inhibition of CDK6/Cyclin-D3 (unknown origin) using histoneH1 as substrate after 90 mins by ADP-Glo assay; assay type: protein-complex assay
[2] = target: Serine/threonine-protein kinase TAO2 (Homo sapiens) (UniProt Q9UL54); assay: Inhibition of recombinant human GST-tagged TAOK2 expressed in baculovirus expression system at 1 uM by Z'-Lyte assay relative to control
[3] = target: RAF proto-oncogene serine/threonine-protein kinase (Homo sapiens) (UniProt P04049); assay: Inhibition of RAF1 (unknown origin) at 0.1 uM by TR-FRET assay relative to control
RAF proto-oncogene serine/threonine-protein kinase (Homo sapiens), sequence (P04049 whole entry): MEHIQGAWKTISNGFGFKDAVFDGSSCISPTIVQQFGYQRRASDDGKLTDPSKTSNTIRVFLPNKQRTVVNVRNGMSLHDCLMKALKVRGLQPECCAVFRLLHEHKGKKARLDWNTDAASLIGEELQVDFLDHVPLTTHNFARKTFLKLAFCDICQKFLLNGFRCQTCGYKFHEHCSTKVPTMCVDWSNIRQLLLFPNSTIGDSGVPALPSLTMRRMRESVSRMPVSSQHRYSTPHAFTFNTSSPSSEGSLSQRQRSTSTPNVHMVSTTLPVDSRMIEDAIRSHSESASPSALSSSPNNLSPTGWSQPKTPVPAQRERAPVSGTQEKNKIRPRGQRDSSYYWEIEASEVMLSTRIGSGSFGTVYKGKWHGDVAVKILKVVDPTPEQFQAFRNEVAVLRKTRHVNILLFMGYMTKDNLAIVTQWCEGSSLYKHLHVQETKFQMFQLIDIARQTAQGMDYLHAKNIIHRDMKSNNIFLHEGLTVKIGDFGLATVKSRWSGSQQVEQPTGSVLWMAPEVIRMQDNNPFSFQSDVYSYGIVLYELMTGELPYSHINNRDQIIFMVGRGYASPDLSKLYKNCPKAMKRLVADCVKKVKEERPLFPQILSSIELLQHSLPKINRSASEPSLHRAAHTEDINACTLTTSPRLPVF

[4] = test system: Epidermal growth factor receptor (Homo sapiens), P00533 [UNDEFINED MUTATION]; assay: Inhibition of recombinant human EGFR d746 to 750 deletion/T790M mutant at 1 uM by TR-FRET assay relative to control
[5] = target: Angiopoietin-1 receptor (Homo sapiens) (UniProt Q02763); assay: Inhibition of recombinant human GST-tagged TIE2 cytoplasmic domain expressed in baculovirus expression system at 0.1 uM by Z'-Lyte assay relative to control
[6] = target: Tyrosine-protein kinase Mer (Homo sapiens) (UniProt Q12866); assay: Inhibition of recombinant human GST-tagged MERTK (578 to 872 residues) expressed in baculovirus expression system at 0.1 uM by Z'-Lyte assay relative to control
Tyrosine-protein kinase Mer (Homo sapiens), sequence (Q12866 whole entry, the tested form may be a part): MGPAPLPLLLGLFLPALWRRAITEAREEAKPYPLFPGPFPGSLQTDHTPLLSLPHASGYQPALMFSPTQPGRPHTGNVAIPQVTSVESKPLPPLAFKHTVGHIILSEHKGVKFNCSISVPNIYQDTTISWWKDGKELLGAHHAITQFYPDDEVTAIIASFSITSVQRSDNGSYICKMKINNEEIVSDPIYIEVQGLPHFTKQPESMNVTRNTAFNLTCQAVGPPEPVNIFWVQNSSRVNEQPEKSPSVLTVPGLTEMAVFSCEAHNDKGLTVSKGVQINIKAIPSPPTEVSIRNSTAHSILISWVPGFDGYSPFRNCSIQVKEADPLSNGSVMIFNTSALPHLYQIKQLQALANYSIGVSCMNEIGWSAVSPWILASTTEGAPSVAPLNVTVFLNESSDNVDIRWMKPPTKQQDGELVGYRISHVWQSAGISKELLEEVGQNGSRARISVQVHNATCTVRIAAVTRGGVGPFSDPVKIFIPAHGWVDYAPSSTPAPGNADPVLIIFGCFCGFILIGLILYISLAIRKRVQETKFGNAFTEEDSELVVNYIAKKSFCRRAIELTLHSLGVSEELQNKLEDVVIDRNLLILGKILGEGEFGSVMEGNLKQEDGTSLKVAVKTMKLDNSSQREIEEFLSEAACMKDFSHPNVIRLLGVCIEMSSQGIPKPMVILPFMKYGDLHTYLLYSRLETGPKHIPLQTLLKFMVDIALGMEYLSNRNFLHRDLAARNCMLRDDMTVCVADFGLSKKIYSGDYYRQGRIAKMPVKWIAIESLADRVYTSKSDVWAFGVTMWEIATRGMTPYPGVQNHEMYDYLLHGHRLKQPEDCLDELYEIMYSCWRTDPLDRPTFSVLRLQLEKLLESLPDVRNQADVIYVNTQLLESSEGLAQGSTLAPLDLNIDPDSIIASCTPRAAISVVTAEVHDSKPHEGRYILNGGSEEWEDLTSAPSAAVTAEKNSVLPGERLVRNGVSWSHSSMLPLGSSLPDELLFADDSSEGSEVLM

[7] = target: Platelet-derived growth factor receptor beta (Homo sapiens) (UniProt P09619); assay: Inhibition of recombinant human His-tagged PDGFRbeta cytoplasmic domain expressed in baculovirus expression system at 1 uM by Z'-Lyte assay relative to control
[8] = target: Tyrosine-protein kinase receptor UFO (Homo sapiens) (UniProt P30530); assay: Inhibition of recombinant human N-terminal GST tagged AXL (473-end residues) expressed in baculovirus infected Sf9 cells at 1 uM by Z'-Lyte assay relative to control
[9] = target: Vascular endothelial growth factor receptor 2 (Homo sapiens) (UniProt P35968); assay: Inhibition of recombinant human His-tagged KDR cytoplasmic domain expressed in baculovirus expression system at 0.1 uM by Z'-Lyte assay relative to control
[10] = target: RAF proto-oncogene serine/threonine-protein kinase (Homo sapiens) (UniProt P04049); assay: Inhibition of RAF1 (unknown origin) at 1 uM by TR-FRET assay relative to control
[11] = Half life in ICR mouse at 5 mg/kg, po administered as single dose by LC-MS/MS analysis; assay type: ADME, organism-based; settings: in vivo
U-87 MG [12] = assay: Cell cycle arrest in human U87MG cells after assessed as accumulation at G1-phase after 24 hrs by propidium iodide staining based flow cytometry; assay type: functional, U-87MG ATCC
[13] = target: Mitogen-activated protein kinase 1 (Homo sapiens) (UniProt P28482); assay: Inhibition of recombinant human full length GST-tagged ERK2 expressed in Escherichia coli at 0.1 uM by Z'-Lyte assay relative to control
Mitogen-activated protein kinase 1 (Homo sapiens), sequence (P28482 whole entry): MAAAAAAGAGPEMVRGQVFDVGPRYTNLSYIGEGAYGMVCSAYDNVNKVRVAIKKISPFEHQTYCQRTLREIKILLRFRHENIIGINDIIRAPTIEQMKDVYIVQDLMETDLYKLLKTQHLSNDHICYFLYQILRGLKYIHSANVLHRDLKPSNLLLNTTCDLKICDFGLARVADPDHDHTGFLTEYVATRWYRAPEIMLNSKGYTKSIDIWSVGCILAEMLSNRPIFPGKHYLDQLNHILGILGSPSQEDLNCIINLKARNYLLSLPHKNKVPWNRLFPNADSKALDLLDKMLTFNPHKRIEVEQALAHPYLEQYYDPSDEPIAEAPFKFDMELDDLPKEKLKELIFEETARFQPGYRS

[14] = AUC (0 to 48 hrs) in CD-1 mouse brain at 10 mg/kg, po administered as single dose by LC-MS/MS analysis; assay type: ADME, organism-based; set-up: dose 10 mg/kg, time < 48 hr, route oral; settings: in vivo
[15] = Half life in ICR mouse at 2 mg/kg, iv administered as single dose by LC-MS/MS analysis; assay type: ADME, organism-based; settings: in vivo
U-87 MG [16] = assay: Antitumor activity against luciferase-fused human U87MG cells orthotopically xenografted in nude mouse assessed as increase in mouse life span at 3.125 mg/kg, po qd for 5 weeks relative to control; assay type: functional, U-87MG ATCC; settings: 840 h
[17] = target: Hepatocyte growth factor receptor (Homo sapiens) (UniProt P08581); assay: Inhibition of recombinant human His-tagged c-Met cytoplasmic domain expressed in baculovirus expression system at 0.1 uM by Z'-Lyte assay relative to control
Hepatocyte growth factor receptor (Homo sapiens), sequence (P08581 whole entry, the tested form may be a part): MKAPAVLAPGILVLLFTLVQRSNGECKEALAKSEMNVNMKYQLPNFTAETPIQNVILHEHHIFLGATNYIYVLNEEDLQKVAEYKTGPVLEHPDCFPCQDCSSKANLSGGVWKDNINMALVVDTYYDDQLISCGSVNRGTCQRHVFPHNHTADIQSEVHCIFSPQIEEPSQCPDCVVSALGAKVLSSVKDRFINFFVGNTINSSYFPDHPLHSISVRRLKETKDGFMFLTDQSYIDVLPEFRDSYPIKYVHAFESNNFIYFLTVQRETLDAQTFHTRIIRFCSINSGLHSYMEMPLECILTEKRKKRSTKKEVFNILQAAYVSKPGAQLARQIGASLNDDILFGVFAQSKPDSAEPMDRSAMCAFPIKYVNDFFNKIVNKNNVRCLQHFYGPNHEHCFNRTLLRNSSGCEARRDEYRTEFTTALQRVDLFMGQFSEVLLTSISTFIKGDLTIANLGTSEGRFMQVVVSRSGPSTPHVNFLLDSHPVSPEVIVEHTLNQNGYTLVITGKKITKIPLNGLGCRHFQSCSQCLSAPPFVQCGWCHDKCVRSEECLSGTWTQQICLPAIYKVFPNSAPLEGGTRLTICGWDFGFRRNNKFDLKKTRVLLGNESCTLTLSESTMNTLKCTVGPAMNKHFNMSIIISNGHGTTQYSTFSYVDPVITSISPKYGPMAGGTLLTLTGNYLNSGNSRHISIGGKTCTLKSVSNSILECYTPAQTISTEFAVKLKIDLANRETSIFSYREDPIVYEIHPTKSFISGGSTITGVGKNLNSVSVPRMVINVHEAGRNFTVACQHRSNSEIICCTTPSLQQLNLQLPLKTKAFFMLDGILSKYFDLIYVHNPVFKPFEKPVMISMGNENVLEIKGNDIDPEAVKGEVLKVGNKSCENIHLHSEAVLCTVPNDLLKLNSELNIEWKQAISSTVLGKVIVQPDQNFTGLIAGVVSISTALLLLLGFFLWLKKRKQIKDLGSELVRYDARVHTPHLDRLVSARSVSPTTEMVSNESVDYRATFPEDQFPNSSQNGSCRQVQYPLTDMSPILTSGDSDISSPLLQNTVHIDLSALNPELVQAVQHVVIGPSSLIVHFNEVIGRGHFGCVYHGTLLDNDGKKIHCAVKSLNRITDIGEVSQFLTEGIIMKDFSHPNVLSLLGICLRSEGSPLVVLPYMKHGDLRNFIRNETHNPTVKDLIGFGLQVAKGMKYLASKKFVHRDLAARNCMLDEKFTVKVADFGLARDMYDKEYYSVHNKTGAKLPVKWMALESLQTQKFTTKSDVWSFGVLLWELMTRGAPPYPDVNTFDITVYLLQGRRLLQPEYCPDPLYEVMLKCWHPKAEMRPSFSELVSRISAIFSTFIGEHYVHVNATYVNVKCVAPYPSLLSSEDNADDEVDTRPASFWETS

U-87 MG [18] = assay: Antitumor activity against luciferase-fused human U87MG cells orthotopically xenografted in nude mouse assessed as tumor growth inhibition at 25 mg/kg, po qd for 4 weeks by bioluminescence imaging relative to control; assay type: functional, U-87MG ATCC; settings: 672 h, read-out: TGI
[19] = target: Tyrosine-protein kinase JAK3 (Homo sapiens) (UniProt P52333); assay: Inhibition of recombinant human GST-tagged JAK3 expressed in baculovirus expression system at 1 uM by TR-FRET assay relative to control
[20] = Cmax in Sprague-Dawley rat at 5 mg/kg, po administered as single dose by LC-MS/MS analysis; assay type: ADME, organism-based; set-up: dose 5 mg/kg, route oral; settings: in vivo
[21] = target: PI3-kinase p110-alpha/p85-alpha (Homo sapiens) (UniProt P27986+P42336); assay: Inhibition of recombinant full-length human N-terminal His6-tagged p110alpha/p85alpha expressed in baculovirus infected Sf21 cells at 0.1 uM by ADP-Glo assay relative to control
[22] = target: Hepatocyte growth factor receptor (Homo sapiens) (UniProt P08581); assay: Inhibition of recombinant human His-tagged c-Met cytoplasmic domain expressed in baculovirus expression system at 1 uM by Z'-Lyte assay relative to control
[23] = target: Dual specificity protein kinase CLK1 (Homo sapiens) (UniProt P49759); assay: Inhibition of recombinant human GST-tagged CLK1 expressed in Escherichia coli at 0.1 uM by Z'-Lyte assay relative to control
[24] = target: Mitogen-activated protein kinase 14 (Homo sapiens) (UniProt Q16539); assay: Inhibition of recombinant human full length GST-tagged p38alpha expressed in Escherichia coli at 0.1 uM by Z'-Lyte assay relative to control
[25] = target: Aurora kinase A (Homo sapiens) (UniProt O14965); assay: Inhibition of recombinant full length human His-tagged AURKA expressed in baculovirus expression system at 0.1 uM by Z'-Lyte assay relative to control
Aurora kinase A (Homo sapiens), sequence (O14965 whole entry): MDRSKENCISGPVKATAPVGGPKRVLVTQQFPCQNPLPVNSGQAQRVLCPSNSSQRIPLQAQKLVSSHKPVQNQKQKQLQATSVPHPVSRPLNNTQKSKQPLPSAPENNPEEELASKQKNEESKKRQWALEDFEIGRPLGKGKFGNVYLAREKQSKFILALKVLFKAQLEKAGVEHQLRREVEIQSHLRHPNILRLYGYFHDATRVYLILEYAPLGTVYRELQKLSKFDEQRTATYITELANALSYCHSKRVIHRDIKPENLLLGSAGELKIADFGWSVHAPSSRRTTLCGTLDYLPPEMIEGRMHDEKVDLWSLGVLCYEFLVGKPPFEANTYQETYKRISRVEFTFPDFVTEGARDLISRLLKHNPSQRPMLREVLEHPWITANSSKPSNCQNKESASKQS

[26] = target: Serine/threonine-protein kinase Chk2 (Homo sapiens) (UniProt O96017); assay: Inhibition of recombinant full length human His-tagged CHEK2 expressed in baculovirus expression system at 0.1 uM by Z'-Lyte assay relative to control
[27] = Cmax in CD-1 mouse brain at 10 mg/kg, po administered as single dose by LC-MS/MS analysis; assay type: ADME, organism-based; set-up: dose 10 mg/kg, route oral
[28] = target: Ephrin type-A receptor 2 (Homo sapiens) (UniProt P29317); assay: Inhibition of recombinant human GST-tagged EPHA2 cytoplasmic domain expressed in baculovirus expression system at 0.1 uM by Z'-Lyte assay relative to control
[29] = Cmax in CD-1 mouse plasma at 10 mg/kg, po administered as single dose by LC-MS/MS analysis; assay type: ADME, organism-based; set-up: dose 10 mg/kg, route oral
[30] = target: Mitogen-activated protein kinase 1 (Homo sapiens) (UniProt P28482); assay: Inhibition of recombinant human full length GST-tagged ERK2 expressed in Escherichia coli at 1 uM by Z'-Lyte assay relative to control
[31] = target: Tyrosine-protein kinase JAK1 (Homo sapiens) (UniProt P23458); assay: Inhibition of recombinant human GST-tagged JAK1 expressed in baculovirus expression system at 0.1 uM by TR-FRET assay relative to control
Tyrosine-protein kinase JAK1 (Homo sapiens), sequence (P23458 whole entry, the tested form may be a part): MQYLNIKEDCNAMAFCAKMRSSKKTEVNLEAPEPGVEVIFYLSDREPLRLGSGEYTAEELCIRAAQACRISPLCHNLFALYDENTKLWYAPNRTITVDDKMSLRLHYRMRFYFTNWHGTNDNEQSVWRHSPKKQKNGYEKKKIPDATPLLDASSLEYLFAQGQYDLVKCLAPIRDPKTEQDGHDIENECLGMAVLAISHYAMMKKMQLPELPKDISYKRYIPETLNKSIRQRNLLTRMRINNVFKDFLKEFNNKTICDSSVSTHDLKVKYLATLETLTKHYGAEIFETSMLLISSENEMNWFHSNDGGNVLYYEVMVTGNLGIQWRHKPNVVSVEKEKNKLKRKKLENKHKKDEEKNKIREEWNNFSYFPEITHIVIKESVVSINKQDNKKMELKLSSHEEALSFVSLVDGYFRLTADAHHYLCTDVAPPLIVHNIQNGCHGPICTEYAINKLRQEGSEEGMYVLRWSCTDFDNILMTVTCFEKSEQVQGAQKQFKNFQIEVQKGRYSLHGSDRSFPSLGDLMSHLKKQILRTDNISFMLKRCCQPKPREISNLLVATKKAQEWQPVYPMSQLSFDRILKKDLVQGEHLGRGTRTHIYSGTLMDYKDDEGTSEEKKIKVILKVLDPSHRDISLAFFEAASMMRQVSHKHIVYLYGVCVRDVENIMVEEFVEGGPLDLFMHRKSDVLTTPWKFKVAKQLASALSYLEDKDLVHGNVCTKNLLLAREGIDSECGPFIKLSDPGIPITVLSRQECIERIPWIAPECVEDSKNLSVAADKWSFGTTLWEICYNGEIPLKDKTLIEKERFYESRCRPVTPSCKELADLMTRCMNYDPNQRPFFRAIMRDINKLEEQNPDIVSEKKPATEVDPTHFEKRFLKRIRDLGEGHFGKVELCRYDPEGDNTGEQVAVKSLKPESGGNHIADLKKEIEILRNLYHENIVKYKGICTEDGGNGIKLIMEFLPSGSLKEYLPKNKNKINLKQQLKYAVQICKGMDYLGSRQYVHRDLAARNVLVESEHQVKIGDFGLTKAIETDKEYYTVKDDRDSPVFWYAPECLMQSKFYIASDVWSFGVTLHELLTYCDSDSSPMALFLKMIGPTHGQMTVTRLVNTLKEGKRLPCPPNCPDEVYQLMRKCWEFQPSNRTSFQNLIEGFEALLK

[32] = target: Tyrosine-protein kinase Mer (Homo sapiens) (UniProt Q12866); assay: Inhibition of recombinant human GST-tagged MERTK (578 to 872 residues) expressed in baculovirus expression system at 1 uM by Z'-Lyte assay relative to control

For `CC1=Nc2c(F)cc(-c3nc(Nc4ccc(C5CCN(C)CC5)cn4)ncc3F)cc2C12CCCC2` [CROZBACICLIB], the inhibition in vivo at 6.25 mg/kg (U-87 MG [1]) was 79%, the pIC50 (CDK6/cyclin D3) was 9.00 and the inhibition [2] was 87%. It also gave an inhibition [3] of -10%, an inhibition [4] of 87% and an inhibition [5] of -6%. For the same compound, the inhibition [6] was -1%, the inhibition [7] was 20% and the inhibition [8] was 26%. For the same compound, the inhibition [9] was 2%, the inhibition [10] was 0% and the half-life [11] was 8.38 h. For the same compound, the Emax (U-87 MG [12]) was 41.1%, the Activity (U-87 MG [12]; U-87MG ATCC) was “Dose-dependent effect” and the inhibition [13] was 0%. It also gave an AUC [14] of 37178 ng·h/g, a half-life [15] of 9.1 h and an ILS at 3.125 mg/kg (U-87 MG [16]) of 28%. It also gave an inhibition [17] of 12%, an inhibition in vivo at 25 mg/kg (U-87 MG [18]) of 96% and an inhibition [19] of 92%. It also gave a Cmax [20] of 134 ng/mL, an inhibition [21] of -3% and an inhibition [22] of 87%. The inhibition [23] was 28%, the inhibition [24] was 0% and the inhibition [25] was -2%. The inhibition [26] was -2%, the Cmax [27] was 2580 ng/g and the inhibition [28] was 6%. The Cmax [29] was 818 ng/mL, the inhibition [30] was 5% and the inhibition [31] was 7%. For the same compound, the inhibition [32] was 13%.
